Assays:
[1] = system: HEK293/ABCB5 kidney cells; assay: MTT cytotoxicity assay, HEK293/ABCB5; type: cell-based
Experimental: (§1) Cell cultures and cytotoxicity assays have been used. Celastrol was dissolved in DMSO at a final concentration of 100 mmol/L and stored at −20° C. Cytotoxicity was assessed using the 3-(4,5-dimethylthiazol-2-yl)-2,5-diphenyltetrazolium bromide assay. 4000 cells from HEK293 and HEK293/ABCB5 kidney cancer cells or MDA-MB-231 pcDNA and MDA-MB-231/BCRP breast cancer cells were seeded on 96-well plates per well. After overnight pre-incubation, the cells were exposed to different concentrations of celastrol (0.1-10 μmol/L) for 3 days. Subsequently, 10 μL of MTT reagents were added to each well and incubated at 37° C. for 4 hours followed by the addition of 100 μL solubilization buffer (10% SDS in 0.01 mol/L HCl) and overnight incubation. Absorbance at 585 nm was determined from each well the next day. The percentage of cell viability was calculated using the following formula: Cell viability (%)=Cells number treated/Cells number DMSO control×100. Data were obtained from three independent experiments.

[2] = system: HCT116 p53+/+ colon cancer cells; assay: MTT cytotoxicity assay, HCT116 p53+/+; type: cell-based; details: Homo sapiens, HCT-116, 72 h, read-out: IC50 HCT116 p53+/+ colon cancer cells
Experimental: Cell cultures and cytotoxicity assays have been used. Celastrol was dissolved in DMSO at a final concentration of 100 mmol/L and stored at −20° C. Cytotoxicity was assessed using the 3-(4,5-dimethylthiazol-2-yl)-2,5-diphenyltetrazolium bromide assay. 4000 cells from HCT116 p53^+/+ or p53^−/− colon cancer cells and DLD-1 Bax-Bak^+/+ or Bax-Bak^−/− colon cancer cells were seeded on 96-well plates per well. […] Subsequently, 10 μL of MTT reagents were added to each well and incubated at 37° C. for 4 hours followed by the addition of 100 μL solubilization buffer (10% SDS in 0.01 mol/L HCl) and overnight incubation. […] The percentage of cell viability was calculated using the following formula: Cell viability (%)=Cells number treated/Cells number DMSO control×100. Data were obtained from three independent experiments.

[3] = system: A549 (Lung) taxol resistant cancer cells; assay: MTT cytotoxicity assay, A549 taxol resistant; type: cell-based, human
Experimental: as §1, with “from A549 (lung), A2780 (ovary), HCT-8 (colon)” for “from HEK293”, “and MCF-7 (breast)” for “and HEK293/ABCB5 kidney cancer cells or MDA-MB-231 pcDNA and MDA-MB-231/BCRP breast”, “celastrol (0.039-100” for “celastrol (0.1-10”, “μmol/L) or taxol” for “μmol/L)”, “reagents was” for “reagents were”

[4] = system: A2780 (Ovary) taxol resistant cancer cells; assay: MTT cytotoxicity assay, A2780 taxol resistant; type: cell-based, human; details: for Resistant Factor: A2780 taxol resistant versus taxol sensitive
Experimental: as §1, with “from A549 (lung), A2780 (ovary), HCT-8 (colon)” for “from HEK293”, “and MCF-7 (breast)” for “and HEK293/ABCB5 kidney cancer cells or MDA-MB-231 pcDNA and MDA-MB-231/BCRP breast”, “celastrol (0.039-100” for “celastrol (0.1-10”, “μmol/L) or taxol” for “μmol/L)”, “reagents was” for “reagents were”

[5] = system: HCT-8 (Colon) taxol sensitive cancer cells; assay: MTT cytotoxicity assay, HCT-8 taxol sensitive; type: cell-based; details: Homo sapiens, HCT-8, 72 h, read-out: IC50 HCT-8 (Colon) (Taxol sensitive)
Experimental: as §1, with “from A549 (lung), A2780 (ovary), HCT-8 (colon)” for “from HEK293”, “and MCF-7 (breast)” for “and HEK293/ABCB5 kidney cancer cells or MDA-MB-231 pcDNA and MDA-MB-231/BCRP breast”, “celastrol (0.039-100” for “celastrol (0.1-10”, “μmol/L) or taxol” for “μmol/L)”, “reagents was” for “reagents were”

[6] = system: MCF-7 (Breast) doxorubicin resistant cancer cells; assay: MTT cytotoxicity assay, MCF-7 doxorubicin resistant; type: cell-based, human
Experimental: as §1, with “MCF-7 doxorubicin sensitive/resistant breast” for “HEK293 and HEK293/ABCB5 kidney”, “CEM doxorubicin sensitive/resistant leukemia” for “MDA-MB-231 pcDNA and MDA-MB-231/BCRP breast cancer”, “(0.039-100” for “(0.1-10”, “μmol/L) or doxorubicin” for “μmol/L)”

[7] = system: CCRF-CEM (Leukemia) doxorubicin sensitive cells; assay: MTT cytotoxicity assay, CCRF-CEM; type: cell-based; details: Homo sapiens, 72 h, 3 days
Experimental: as §1, with “MCF-7 doxorubicin sensitive/resistant breast” for “HEK293 and HEK293/ABCB5 kidney”, “CEM doxorubicin sensitive/resistant leukemia” for “MDA-MB-231 pcDNA and MDA-MB-231/BCRP breast cancer”, “(0.039-100” for “(0.1-10”, “μmol/L) or doxorubicin” for “μmol/L)”

[8] = system: CEM-ADR5000 (Leukemia) doxorubicin resistant cells; assay: MTT cytotoxicity assay, CEM-ADR5000; type: cell-based, human
Experimental: as §1, with “MCF-7 doxorubicin sensitive/resistant breast” for “HEK293 and HEK293/ABCB5 kidney”, “CEM doxorubicin sensitive/resistant leukemia” for “MDA-MB-231 pcDNA and MDA-MB-231/BCRP breast cancer”, “(0.039-100” for “(0.1-10”, “μmol/L) or doxorubicin” for “μmol/L)”

**Q.** What does the source list for `CC1=C(O)C(=O)C=C2C1=CC=C1[C@@]2(C)CC[C@@]2(C)[C@@H]3C[C@](C)(C(=O)O)CC[C@]3(C)CC[C@]12C` [Celastrol, celastrol]?
**A.** IC50 ([1]; Homo sapiens, HEK293, 72 h, MTT, 3 days): 3.45 µM; Resistant Factor ([1]; IC50 HEK293/ABCB5 divided by IC50 HEK293): 1.12; IC50 [2]: 831 nM; Resistant Factor ([3]; A549 taxol resistant versus taxol sensitive): 0.42; IC50 ([3]; Homo sapiens, A549, 72 h, read-out: IC50 A549 (Lung) (Taxol resistant)): 1000 nM; Resistant Factor [4]: 0.60; Resistant Factor ([4]; listed as celastrol): 0.6; IC50 ([4]; Homo sapiens, A2780, 72 h, read-out: IC50 A2780 (Ovary) (Taxol resistant)): 540 nM; IC50 [5]: 937 nM; IC50 ([6]; Homo sapiens, MCF7, 72 h, read-out: IC50 MCF-7 (Breast) (Doxorubicin resistant)): 950 nM; Resistant Factor ([6]; MCF-7 doxorubicin resistant versus doxorubicin sensitive): 0.84; IC50 [7]: 3.26 µM; Resistant Factor ([8]; CEM-ADR5000 versus CCRF-CEM): 0.033; IC50 ([8]; Homo sapiens, 72 h, MTT, 3 days): 108 nM
